Experimental data taken from PMC9005971, “Discovery of 2-(4-Acrylamidophenyl)-Quinoline-4-Carboxylic Acid Derivatives as Potent SIRT3 Inhibitors” (Frontiers in Chemistry, 2022).

Key:
MOLM-13 cells = experiment: In vitro antiproliferative CCK-8 assay, MOLM-13; assay type: cell-based; conditions: Homo sapiens, 72 h, read-out: IC50 growth inhibition MOLM-13
Description: (§1) The proliferation of THP-1, MOLM-13, SEM and MV4-11 cells was tested by CCK-8 assay. Briefly, cells were seeded in 96-well plate with about 5 × 10^3 cells in each well. The cells were treated with P6 or Ara-C (0–10 µM) after 24 h of incubation. CCK-8 reagent ([…]) was added to each well after 72 h of incubation, and cells were incubated at 37°C for 4 h. The light absorbance at 450 nm was measured by using an Opsys microplate reader (Dynex Technologirs, Chantilly, VA, United States). Results are illustrated as percent of cell viability normalized to DMSO-treated control cells.

THP-1 cells = experiment: In vitro antiproliferative CCK-8 assay, THP-1; assay type: cell-based; conditions: Homo sapiens; for inhibition at 1 µM: dose of 1 μM, mean of three experiments, read-out: THP-1 percentage inhibitory rate
Description: as §1

SEM cells = experiment: In vitro antiproliferative CCK-8 assay, SEM; assay type: cell-based; conditions: 72 h, read-out: IC50 growth inhibition SEM
Description: as §1

[1] = system: THP-1, MOLM-13, SEM and MV4-11 cells; experiment: Cell apoptosis analysis, MLLr leukemic cells; assay type: cell-based; conditions: 72 h, flow cytometry
Description: THP-1, MOLM-13, SEM and MV4-11 cells were treated with P6 (0.45–4 µM) or Ara-C (0.1–2.0 µM) for 72 h, collected and resuspended in 1× binding buffer. Cells were incubated with FITC Annexin V and PI double labeling for 30 min in the dark at room temperature and measured by flow cytometry.

MV4-11 cells = experiment: In vitro antiproliferative CCK-8 assay, MV4-11; assay type: cell-based; conditions: Homo sapiens, 72 h, read-out: IC50 growth inhibition MV4-11
Description: as §1

SIRT1 = molecular target: T1, SIRT1 (Homo sapiens, UniProt Q96EB6); conditions: ref Galli et al., 2012; cited from earlier work
T1 sequence (Q96EB6 1-747): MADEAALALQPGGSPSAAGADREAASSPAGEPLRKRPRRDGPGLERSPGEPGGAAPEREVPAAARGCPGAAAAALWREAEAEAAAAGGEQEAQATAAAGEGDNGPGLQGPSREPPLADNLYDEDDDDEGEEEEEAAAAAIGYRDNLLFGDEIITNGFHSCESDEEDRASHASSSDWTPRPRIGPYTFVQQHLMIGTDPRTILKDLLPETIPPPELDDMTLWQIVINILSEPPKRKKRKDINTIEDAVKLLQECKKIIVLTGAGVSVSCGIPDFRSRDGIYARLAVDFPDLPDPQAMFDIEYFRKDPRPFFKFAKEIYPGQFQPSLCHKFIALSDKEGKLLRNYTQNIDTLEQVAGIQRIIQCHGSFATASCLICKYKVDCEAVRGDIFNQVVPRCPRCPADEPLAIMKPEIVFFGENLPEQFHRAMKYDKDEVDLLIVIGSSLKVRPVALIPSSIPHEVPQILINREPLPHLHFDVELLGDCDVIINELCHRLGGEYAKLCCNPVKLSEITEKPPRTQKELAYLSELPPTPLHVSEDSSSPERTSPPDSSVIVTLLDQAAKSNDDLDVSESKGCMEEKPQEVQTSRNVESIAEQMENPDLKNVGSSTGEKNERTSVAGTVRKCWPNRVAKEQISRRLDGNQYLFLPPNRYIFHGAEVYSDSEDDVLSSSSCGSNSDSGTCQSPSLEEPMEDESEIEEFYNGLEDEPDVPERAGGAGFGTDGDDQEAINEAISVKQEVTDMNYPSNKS

SIRT2 = molecular target: T2, SIRT2 (Homo sapiens, UniProt Q8IXJ6); conditions: ref Galli et al., 2012; cited from earlier work
T2 sequence (Q8IXJ6 1-389): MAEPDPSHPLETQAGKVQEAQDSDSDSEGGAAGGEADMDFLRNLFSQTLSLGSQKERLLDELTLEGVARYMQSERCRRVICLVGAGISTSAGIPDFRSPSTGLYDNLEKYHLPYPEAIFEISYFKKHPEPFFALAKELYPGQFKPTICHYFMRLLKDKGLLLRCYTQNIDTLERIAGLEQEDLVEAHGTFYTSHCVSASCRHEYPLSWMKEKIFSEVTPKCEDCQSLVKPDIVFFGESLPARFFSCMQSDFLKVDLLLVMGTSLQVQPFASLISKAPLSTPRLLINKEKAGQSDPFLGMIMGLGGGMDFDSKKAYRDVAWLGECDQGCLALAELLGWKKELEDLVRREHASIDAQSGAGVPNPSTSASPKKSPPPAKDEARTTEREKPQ

SIRT3 = molecular target: T3, SIRT3 (Homo sapiens, UniProt Q9NTG7); experiment: SIRT3 enzyme inhibitory assay (fluorescence); assay type: biochemical; conditions: dose of 10 μM; mean of three experiments; read-out: SIRT3 percentage inhibitory rate
T3 sequence (Q9NTG7 1-399): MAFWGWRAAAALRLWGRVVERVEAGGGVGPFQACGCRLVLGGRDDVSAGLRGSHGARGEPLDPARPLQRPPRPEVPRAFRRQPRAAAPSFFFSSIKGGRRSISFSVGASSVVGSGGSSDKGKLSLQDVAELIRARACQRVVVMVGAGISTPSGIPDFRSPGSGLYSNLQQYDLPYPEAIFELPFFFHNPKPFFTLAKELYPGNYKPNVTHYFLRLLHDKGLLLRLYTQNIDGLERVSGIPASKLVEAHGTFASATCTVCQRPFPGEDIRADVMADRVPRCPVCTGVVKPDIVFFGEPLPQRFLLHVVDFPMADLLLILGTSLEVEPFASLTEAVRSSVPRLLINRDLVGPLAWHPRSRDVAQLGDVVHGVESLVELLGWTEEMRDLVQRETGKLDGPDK
Description: All of the enzymatic reactions were conducted at 37°C for 30 min. […] The compounds were diluted in 10% DMSO and 5 ul of the dilution was added to each reaction mixture (50 ul). The assay was performed by quantitating the amount of fluorescent product generated from the enzyme reaction. Fluorescence intensity is then analyzed at excitation wavelength of 350–360 nm and emission wavelength of 450–460 nm on a SpectraMax M5 microtiter plate reader. The IC50 values were calculated using Prism GraphPad software.

Structure (SMILES) | inhibition at 10 µM (SIRT3) [%] | inhibition at 1 µM (THP-1 cells) [%] | also measured
Nc1ccn([C@@H]2O[C@H](CO)[C@@H](O)[C@@H]2O)c(=O)n1 [Ara-C, Cytarabine, reference compound] | – | 80.4 ± 3.22 | IC50 (MOLM-13 cells): 0.06 µM; IC50 (THP-1 cells; 72 h, CCK-8, read-out: IC50 growth inhibition THP-1): 0.52 µM; IC50 (SEM cells): 0.06 µM; induction of apoptosis [1]: obvious apoptosis; IC50 (MV4-11 cells): 0.54 µM
c1cncc(-c2c[nH]nn2)c1 [Compound 3-TYP] | – | – | IC50 (SIRT1): 0.088 µM; IC50 (SIRT2): 0.092 µM
C=CC(=O)Nc1ccc(-c2cc(C(=O)Nc3ccc(OC)cc3)c3ccccc3n2)cc1 [Compound P16, 2-(4-Acryloylamino-phenyl)-quinoline-4-carboxylic acid (4-methoxy-phenyl)-amide] | 28.4 ± 1.85 | 13.3 ± 1.23 | –
C=CC(=O)Nc1ccc(-c2cc(C(=O)Nc3ccc4c(c3)OCO4)c3ccccc3n2)cc1 [Compound P20, 2-(4-Acryloylamino-phenyl)-quinoline-4-carboxylic acid benzo [1,3]dioxol-5-ylamide] | 45.1 ± 2.55 | 28.1 ± 1.76 | –

More lines, main results first:

inhibition at 10 µM (SIRT3) [%] | Structure (SMILES) | inhibition at 1 µM (THP-1 cells) [%] | also measured
30.2 ± 1.94 | C=CC(=O)Nc1ccc(-c2cc(C(=O)N3CCN(CCc4ccccc4)CC3)c3ccccc3n2)cc1 [Compound P9, N-{4-[4-(4-Phenethyl-piperazine-1-carbonyl)-quinolin-2-yl]-phenyl}-acrylamide] | 11.7 ± 0.88 | –
21.8 ± 1.62 | C=CC(=O)Nc1ccc(-c2cc(C(=O)N3CCN(c4cccc(Cl)c4)CC3)c3ccccc3n2)cc1 [Compound P4, N-(4-{4-[4-(3-Chloro-phenyl)-piperazine-1-carbonyl]-quinolin-2-yl}-phenyl)-acrylamide] | 57.9 ± 3.04 | –
22.6 ± 1.87 | C=CC(=O)Nc1ccc(-c2cc(C(=O)N3CCN(c4ccc(Cl)cc4)CC3)c3ccccc3n2)cc1 [Compound P5, N-(4-{4-[4-(4-Chloro-phenyl)-piperazine-1-carbonyl]-quinolin-2-yl}-phenyl)-acrylamide] | 56 ± 2.66 | –
